{
  "source": "patent US20260137662A1",
  "about": "“CD11B AGONISTS FOR TREATMENT OF AUTOIMMUNE DISEASE” (Rush University Medical Center, priority 2022, published 2026)",
  "key": {"[1]": {"test_system": "BMDMs from mice with global deletion of CD11b (KO)", "experiment": "Biomarker secretion from IMQ-treated bone marrow derived macrophages of CD11b KO mice", "type": "cell-based", "conditions": "CD11b KO cells, IMQ (20 ug/mL) and LA1 (20 uM) co-treatment, 4 hours", "protocol": "(§1) FIG. 7A illustrates levels of biomarker IL-6 secretion in bone marrow derived macrophages (BMDMs) from C57BL/6 wild type (WT) mice, mice with global deletion of CD11b (KO), or C57BL/6 mice expressing CD11b with a point mutation (KI), the macrophages treated for 4 hours with vehicle DMSO (UT), LA1 (20 uM), IMQ (20 ug/mL), or IMQ and LA1 co-treatment. Bars show mean with SD (N=3) (*P<0.05, **P<0.01, ***P<0.001, ****P<0.0001).\nas §1, with “7B” for “7A”, “IL-1b” for “IL-6”\nas §1, with “7C” for “7A”, “suPAR” for “IL-6”\nas §1, with “7D” for “7A”, “IFNb” for “IL-6”\nBone marrow derived macrophages (BMDMs) from C57BL/6 wild type mice (WT), mice with global deletion of CD11b (KO), and C57BL/6 mice expressing CD11b with a point mutation (KI), as described previously (Martinez et al., 2020) were used to evaluate the effect of pharmacologic activation of CD11b by LA1 or genetic activation of CD11b on TLR-pathway dependent biomarkers. BMDMs from WT, KO, and KI mice were left untreated, treated with LA1, treated with IMQ, or co-treated with LA1 and IMQ and levels of biomarkers IL-1b, suPAR, IL-6 and IFN-b were measured 4 hours after treatment."}, "[2]": {"test_system": "humanized mouse model of SLE (SLE-NSG mice)", "experiment": "Humanized SLE mouse model (NSG mice engrafted with SLE patient PBMCs)", "type": "in vivo", "protocol": "NSG mice engrafted with healthy control or SLE PBMCs were subsequently treated with LA1 or vehicle and human dsDNA levels were measured after 4 weeks of treatment. Each dot represents a unique sample. Bars show mean +/−SEM (n=3-6).\nNSG mice engrafted with healthy control or SLE PBMCs were subsequently treated with LA1 or vehicle and suPAR levels were measured after 4 weeks of treatment. Each dot represents a unique sample. Bars show mean +/−SEM (n=3-6). […]\nNSG mice engrafted with healthy control or SLE PBMCs were subsequently treated with LA1 or vehicle and ACR was measured after 4 weeks of treatment. Each dot represents a unique sample. Bars show mean +/−SEM (n=3-6).\nFIG. 14A illustrates alopecia in control mouse models (Ctrl), mice engrafted with heathy PBMCs (HC), humanized SLE models treated with vehicle (Veh), and humanized SLE models treated with LA1. […]\nThe efficacy of CD11b agonist LA1 as a therapeutic was studied using a generated humanized mouse model of SLE. To generate the humanized SLE model, immunocompromised NSG mice engrafted with peripheral blood mononuclear cells (PBMCs) from either SLE patients or from healthy human donors (control). 2.5×10^6 purified PBMCs were injected intravenously into NSG mice on day 0. The humanized mice were monitored daily for significant clinical signs of SLE (alopecia, skin lesions, weight loss & arthritis), morbidity and mortality. Body weights were recorded weekly and skin lesions were photographed and scored weekly.\nA small sample of peripheral blood was drawn from the mice under general anesthesia 2, 4 and 6 wks post-humanization by penetrating the retro-orbital sinus in mice with a sterile Pasteur pipette. The blood sample was split for fluorescence-activated cell sorting (FACS) analysis and serum preparation. […] For serum, the whole blood was clotted at room temperature for 30 minutes, followed by a 10-minute centrifugation at 10,000 RPM. The red blood cell-free serum was transferred into micro-centrifuge tubes and stored at −80° C. until further analysis. Additionally, urine samples were collected weekly, transferred into a micro-centrifuge tube and stored at −80° for future analysis. Urine protein was measured using a sandwich ELISA specific for mouse albumin (Bethyl Laboratories, TX) and urinary creatinine was determined using the Creatinine Companion kit (Exocell, PA) according to manufacturer's protocol.\nTo test the efficacy of LA1 on humanized SLE mouse models, the generated SLE-NSG mice were treated with LA1 (2 mg/kg i.p. daily) starting at two weeks post administration of PBMCs and until experiment completion. Concentrations of human dsDNA, mouse suPAR, and IFNb were measured in NSG mice, NSG mice engrafted with PBMCs from a healthy donor, untreated SLE-NSG mice, SLE-NSG mice treated with a vehicle, and SLE-NSG mice treated with LA1."}, "[3]": {"conditions": "LA1 2 mg/kg i.p. daily from two weeks post PBMCs, after 4 weeks of treatment, vs vehicle, 2 mg/kg"}, "[4]": {"conditions": "humanized SLE mice treated with LA1 vs vehicle"}},
  "note": "Entries after “also recorded” stand apart in the source; their conditions may differ.",
  "data": [
    {"smiles": "O=C(O)c1ccc(-c2ccc(/C=C3\\SC(=S)N(Cc4ccccc4)C3=O)o2)cc1", "note": "[LA1, (Z)-4-(5-((3-benzyl-4-oxo-2-thioxothiazolidin-5-ylidene)methyl)furan-2-yl)benzoic acid]", "values": [
      {"measurement": "level of IFN-b in cell supernatant", "setting": "[1]", "result": "no effect"},
      {"measurement": "level of IL-1b in cell supernatant", "setting": "[1]", "result": "no effect"},
      {"measurement": "level of IL-6 in cell supernatant", "setting": "[1]", "result": "no effect"},
      {"measurement": "level of suPAR in cell supernatant", "setting": "[1]", "result": "no effect"},
      {"measurement": "concentration of IFNb in the serum", "setting": "[2]; [3]", "result": "significantly reduced; also recorded: reduction"},
      {"measurement": "concentration of anti-double stranded DNA antibodies (human dsDNA) in the serum", "setting": "[2]; [3]", "result": "significantly reduced; also recorded: reduction"},
      {"measurement": "concentration of suPAR in the serum", "setting": "[2]; [3]", "result": "significantly reduced; also recorded: reduction"},
      {"measurement": "urinary albumin creatinine ratios (ACR)", "setting": "[2]; [3]", "result": "significantly reduced; also recorded: reduction"},
      {"measurement": "alopecia (nose area)", "setting": "[2]; [4]", "result": "significantly reduced; also recorded: reduces alopecia"},
      {"measurement": "number of GR1-positive, CD11b-positive cells in spleens", "setting": "[2]; [4]", "result": "reduction in number"},
      {"measurement": "number of neutrophils infiltrating in the kidney (H&E staining)", "setting": "[2]; [4]", "result": "reduction in number"}
    ]}
  ]
}
